Reference: patent publication US9834525B2, “Inhibitors of paxillin function and related compositions and methods” (UNIVERSITY OF TENNESSEE RESEARCH FOUNDATION, priority 2015, dated 2017)
Entries after “also recorded” stand apart in the source; their conditions may differ.

Assays:
Mel 270 primary-UM cells = test: CFSE cellular proliferation, Mel 270; assay type: cell-based, human; details: 96 hrs culture, 1 μM for the last 24 hrs
Experimental: Harvested cells were resuspended at a concentration of 1.0×10^6 cells/mL in warm PBS/1% FBS. Cells were labeled with […] (Invitrogen) for 5 minutes at 37° C. then quenched on cold growth media (final volume 20 mL) for 10 minutes, twice. Cultured unlabeled cells were used as controls.
To test the hypothesis that inhibition of paxillin will reduce cellular proliferation UM cell lines were labeled with carboxyfluorescein succunimidyl ester (CFSE), a cell tracking dye, and cultured for 96 hrs. A group of cells received treatment with compound (II-4) for the last 24 hours. Maximum CFSE fluorescence was controlled using labeled cells prior culture −0 hr. Negative control was established using unlabeled cells cultured in parallel. Histograms in FIG. 15D show 96 hrs cultured cells divided with a 1-log shift or reduction in CFSE intensity. […] Cell proliferation was not affected in the 92.1 cell line. […]
FIG. 15: The paxillin inhibitor Compound (II-4) selectively affects cellular proliferation of primary UM cells that become metastatic. […] Unlabeled cells were used to control fluorescence. […] B. Quantitation of experiment +/−SD including primary UM that becomes metastatic (Mel 270), metastatic (OMM 2.1) and primary (92.1) UM cells. *P=0.0007 and **P=0.0005. […] Quantitation of VLA-4 protein levels +/−SD from n=3. […]

[1] = Microsomal stability, pooled mouse liver microsomes; assay type: in vitro ADME; details: 1 μM, 37° C., 60 min
Experimental: (§1) Microsomal stability of compound (II-4) (1 μM) was assessed in pooled liver microsomes (human, mouse, and rat) (FIG. 7). Briefly, compound (II-4) was incubated in duplicate with microsomes at 37° C. Reactions contained microsomal protein in 100 mM potassium phosphate, 2 mM NADPH, 3 mM MgCl2, pH 7.4. NADPH was omitted to detect NADPH-free degradation. At 60 minutes, the reaction was stopped by adding ice-cold methanol containing internal standard. Samples were centrifuged to remove precipitated protein, and the supernatants were analyzed by LC/MS/MS to quantitate the remaining parent.
as §1, with “23).” for “7).”, “min,” for “minutes,”, “(+” for “containing”, “standard).” for “standard.”

[2] = Microsomal stability, pooled rat liver microsomes; assay type: in vitro ADME; details: 1 μM, 37° C., 60 min
Experimental: as §1
as §1, with “23).” for “7).”, “min,” for “minutes,”, “(+” for “containing”, “standard).” for “standard.”

ERK1/2 = test: Western blot of VEGF-induced ERK1/2 phosphorylation in REC; assay type: cell-based, human; details: REC under VEGF; compound (II-4) 500 nM, SU6656 1 μM
Experimental: REC, Mel 270, OMM 2.5 under Hepatocyte Growth Factor (HGF) or Vascular Endothelial Growth Factor (VEGF) stimulation conditions: Cell lysates were collected in RIPA lysis buffer (50 mM Tris-HCl, pH 7.4, 150 mM NaCl, 2 mM EDTA, 1% Nonidet P-40, 0.1% SDS) with protease 1× inhibitor cocktail (Roche; Indianapolis, Ind.). Lysates were kept on ice and centrifuged at 10,000×g×10 minutes and total protein was measured using the BCA assay (Pierce, Rockford, Ill.). Protein samples were mixed with 4×LDS loading buffer with 2.5% 2-mercaptoethanol (Sigma-Aldrich), heated to 70° C. for 10 minutes, and loaded on NuPAGE 4-12% Bis-Tris gel (Invitrogen, Carlsbad, Calif.). Immunoblotting was performed with nitrocellulose membranes (Bio-Rad, Hercules, Calif.) at 170-mA start and 110-mA end at 25 V for two hours in NuPAGE transfer buffer (Invitrogen) containing 20% methanol. Membranes were blocked using Odyssey blocking buffer (LI-COR; Lincoln, Nebr.) for one hour at room temperature with gentle shaking Membranes were then incubated at 4° C. with specific primary antibodies (1:1000) overnight. Cellular protein was normalized using rabbit-GAPDH or mouse-α-Tubulin [1:20,000] (Cell Signaling, Danvers, Mass.; LI-COR, respectively). […] Dual-channel infrared scan and quantitation of immunoblots were conducted using the ODYSSEY Sa infrared imaging system with Image Studio (Ver. 3.1.4) (LI-COR). […]

AKT in OMM 2.5 cells = test: Western blot of pAKT/AKT in HGF-stimulated metastatic UM cells; assay type: cell-based, human; details: HGF-stimulated OMM 2.5 cells, harvest after 4 hrs
Experimental: REC, Mel 270, OMM 2.5 under Hepatocyte Growth Factor (HGF) or Vascular Endothelial Growth Factor (VEGF) stimulation conditions: Cell lysates were collected in RIPA lysis buffer (50 mM Tris-HCl, pH 7.4, 150 mM NaCl, 2 mM EDTA, 1% Nonidet P-40, 0.1% SDS) with protease 1× inhibitor cocktail (Roche; Indianapolis, Ind.). Lysates were kept on ice and centrifuged at 10,000×g×10 minutes and total protein was measured using the BCA assay (Pierce, Rockford, Ill.). Protein samples were mixed with 4×LDS loading buffer with 2.5% 2-mercaptoethanol (Sigma-Aldrich), heated to 70° C. for 10 minutes, and loaded on NuPAGE 4-12% Bis-Tris gel (Invitrogen, Carlsbad, Calif.). Immunoblotting was performed with nitrocellulose membranes (Bio-Rad, Hercules, Calif.) at 170-mA start and 110-mA end at 25 V for two hours in NuPAGE transfer buffer (Invitrogen) containing 20% methanol. […] Dual-channel infrared scan and quantitation of immunoblots were conducted using the ODYSSEY Sa infrared imaging system with Image Studio (Ver. 3.1.4) (LI-COR).
FIG. 16: Paxillin inhibition reduced pAKT signaling in metastatic UM cells. A, Representative Western Blot of total and phosphorylated paxillin in metastatic UM cells, as in FIG. 4A-B. B, Quantitation from n=3. […] Lysates were measured by Western Blot. […]

Which “cell proliferation (CFSE)” value (Mel 270 primary-UM cells) does the source give for `COc1cc(C2OC(=O)Nc3c2ccc2ccccc32)cc(OC)c1OC` (centres unmarked) [compound II-4] here?
Its value is “caused a reduction in cell proliferation”.

And the “microsomal stability (metabolism by cytochrome P-450 enzymes)” value [1]?
The value was “rapidly metabolized”.

And the “microsomal stability (metabolism by cytochrome P-450 enzymes)” value [2]?
Its value is “rapidly metabolized”.

And the “VEGF-dependent ERK1/2 phosphorylation” value (ERK1/2)?
Its value is “No significant change; also recorded: Neither SU6656 nor compound (II-4) decreased”.

And the pAKT/AKT (AKT in OMM 2.5 cells)?
The pAKT/AKT was “significant reduction”.
